US9902986B2, “Enterobactin conjugates and uses thereof” (Massachusetts Institute of Technology, priority 2013, dated 2018)

Experiments:
[1] = system: human colon epithelial T84 cells; assay: Cytotoxicity study using MTT; conditions: 24 h
Method: Colon epithelial T84 cell line (purchase from ATCC) were grown in DMEM/F12 medium containing penicillin (100 I.U./mL) and streptomycin (100 μg/mL). The cells were passed and plated in 96-well flat-bottom plates ˜16 h before treatment. Each well contained 90 µL of the cell culture at a density of 10^5 cells/mL. Stock solutions of the tested conjugates (e.g., Ent-Amp) were prepared in sterile filtered 10% DMSO/water, and 10 μL of the each solution was added to each well. The plate was incubated at 37° C. and under 5% CO2 for 24 h and 20 μL of MTT (5 mg/mL in sterile PBS) was added to each well. The plate was incubated at 37° C. for another 4 h, and the supernatant was removed from each well. DMSO (100 μL) was added to the wells to afford a purple solution, and the absorbance at 550 nm was recorded by using a plate reader. Blank readings were generated by wells that only contain the growth medium but no cells. The assay was repeated in three independent trials, and the resulting mean and standard errors are reported. […] Ent-Amp, Ent, and Amp were incubated with human colon epithelial T84 cells for 24 h.
In another exemplary experiment, the human colon epithelial T84 cell line was purchased from ATCC and cultured in 1:1 DMEM/F12 medium with 10% fetal bovine serum, 1% penicillin, and streptomycin (v/v, ATCC). The cells were grown to approximately 95% confluency and treated with 3 mL of trypsin-EDTA (Corning). A 12-mL portion of fresh medium was added to the detached cells, and the T84 cell suspension was centrifuged (600 rpm×5 min, 37° C.). The supernatant was discarded, and the cell pellet was resuspended in 6 mL of the fresh culture media. The concentration of cells was quantified by using a manual hemocytometer (VWR International) and adjusted to 1×10^5 cells/mL. A 90-μL aliquot of T84 cells were then added to 96-well plates and incubated at 37° C. and 5% CO2 for 24 h. […] DMSO (100 μL) was added to each well and the absorbance at 550 nm was recorded by using a plate reader. Blank readings were recorded on wells that only contained the medium. […]

[2] = system: E. coli ATCC 33475 (ent-); assay type: cell-based, Escherichia coli; conditions: 10 μM
Method: (§1) General microbiology methods are as described herein or according to processes known in the art. […] Bacterial growth was assayed by measuring OD600 using a BioTek Synergy HT plate reader. Each well condition was prepared in duplicate and three independent replicates of each assay were conducted on different days. The resulting mean OD600 are reported and the error bars are the standard deviation of the mean obtained from the three independent replicates.
(§2) Three non-pathogenic E. coli strains were employed that are defective in enterobactin synthesis, enterobactin transport, or ferric enterobactin utilization in growth recovery assays. E. coli ATCC 33475 (ent-) cannot biosynthesize enterobactin, but retains the capacity to import and metabolize the siderophore.^71 E. coli H1187 (fepA-) lacks the outer membrane enterobactin receptor. E. coli K-12 JW0576 (fes-) can accumulate ferric enterobactin, but cannot release the iron because it is deficient in the enterobactin esterase Fes. As a result of these defects in iron metabolism, all three strains grow poorly under conditions of iron limitation.^71 The iron chelator 2,2′-dipyridyl (dipyridyl, DP) was used to generate iron-deficient conditions and promote expression of siderophore transport machinery in the growth recovery assays.

[3] = system: P. aeruginosa K648 (pvd-, pch-); assay type: cell-based, Pseudomonas aeruginosa
Method: as §1
(§3) It was next sought to determine whether the enterobactin-cargo conjugates provided growth recovery for Pseudomonas aeruginosa PAO1. This Gram-negative opportunistic human pathogen synthesizes and exports two siderophores, pyoverdine (pvd) and pyochelin (pch), and employs multiple additional mechanisms for iron acquisition.^72,73 P. aeruginosa utilizes enterobactin as a xenosiderophore, and the genes pfeA^74,75 and pirA^76 encode outer membrane enterobactin transporters. Similar to the E. coli experiments, P. aeruginosa strains deficient in siderophore production or utilization were used in growth recovery assays.

[4] = system: P. aeruginosa K407 (pvd-, pFr-); assay: Growth recovery assay, P. aeruginosa (pfeA-); assay type: cell-based, Pseudomonas aeruginosa; conditions: 600 μM DP; for growth inhibition of P. aeruginosa (pfeA-): micromolar concentrations
Method: as §1, §3

[5] = three catecholate groups; cited from earlier work
[6] = system: E. coli H1187 (fepA-); assay: Growth recovery assay, E. coli (fepA-); assay type: cell-based, Escherichia coli; conditions: 200 μM DP
Method: as §1, §2

[7] = system: E. coli K-12 JW0576 (fes-); assay: Growth recovery assay, E. coli (fes-); assay type: cell-based, Escherichia coli; conditions: 200 μM DP
Method: as §1, §2

[8] = molecular target: FepA (Escherichia coli, UniProt P05825); conditions: E. coli outer membrane transporter; cited from earlier work
[9] = molecular target: Lipocalin-2 (lcn2) (Homo sapiens, UniProt P80188); conditions: cited from earlier work
Chain of Lipocalin-2 (lcn2) (P80188 21-198): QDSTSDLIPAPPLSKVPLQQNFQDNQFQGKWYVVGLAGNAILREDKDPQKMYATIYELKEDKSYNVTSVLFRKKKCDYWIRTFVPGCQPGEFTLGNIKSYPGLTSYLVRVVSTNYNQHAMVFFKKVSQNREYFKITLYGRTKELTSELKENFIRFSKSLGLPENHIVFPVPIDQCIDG

Chain of FepA (P05825 23-746): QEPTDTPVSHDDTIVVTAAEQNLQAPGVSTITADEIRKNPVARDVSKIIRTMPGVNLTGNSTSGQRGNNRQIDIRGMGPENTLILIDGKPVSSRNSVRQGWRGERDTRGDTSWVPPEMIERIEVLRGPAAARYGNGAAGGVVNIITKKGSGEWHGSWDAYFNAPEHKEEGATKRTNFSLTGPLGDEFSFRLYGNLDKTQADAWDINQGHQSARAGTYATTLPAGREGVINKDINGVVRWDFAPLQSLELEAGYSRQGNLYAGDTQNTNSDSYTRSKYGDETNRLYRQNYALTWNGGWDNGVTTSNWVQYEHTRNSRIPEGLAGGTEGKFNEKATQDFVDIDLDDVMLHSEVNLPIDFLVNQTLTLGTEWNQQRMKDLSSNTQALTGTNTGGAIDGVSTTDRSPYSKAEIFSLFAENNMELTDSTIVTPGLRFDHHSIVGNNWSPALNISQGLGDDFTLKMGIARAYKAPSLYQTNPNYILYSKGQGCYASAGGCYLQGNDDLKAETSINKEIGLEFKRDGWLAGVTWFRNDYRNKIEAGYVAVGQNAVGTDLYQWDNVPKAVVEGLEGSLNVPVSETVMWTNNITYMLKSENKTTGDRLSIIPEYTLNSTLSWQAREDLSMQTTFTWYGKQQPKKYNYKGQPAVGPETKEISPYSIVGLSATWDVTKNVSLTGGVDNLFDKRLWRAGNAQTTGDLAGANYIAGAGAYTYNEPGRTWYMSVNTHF

## O=C(N[C@H]1COC(=O)[C@@H](NC(=O)c2cccc([O-])c2[O-])COC(=O)[C@@H](NC(=O)c2cccc([O-])c2[O-])COC1=O)c1cccc([O-])c1[O-].[Fe+3] [Ent with pre-loaded Fe]
[1]; concentrations up to 10 μM
  effect on viability of T84 cells (MTT): did not exhibit this effect

## O=C(N[C@H]1COC(=O)[C@@H](NC(=O)c2cccc(O)c2O)COC(=O)[C@@H](NC(=O)c2cccc(O)c2O)COC1=O)c1cccc(O)c1O [L-Ent, Enterobactin]
[2]; 50% MHB, 200 μM DP, 30° C., t=19 h
  OD600 of E. coli (ent-) culture: ~0.2
[3]; low-micromolar concentrations, 50% MHB, 600 μM DP, 30° C., t=19 h
  OD600 of P. aeruginosa (pvd-, pch-) culture: ~0.40
[4]
  growth enhancement of P. aeruginosa (pfeA-): no growth enhancement
  growth inhibition of P. aeruginosa (pfeA-): growth inhibition at micromolar concentrations
[1]; 10 μM
  decrease of percent survival of T84 cells: approximately 30%
[5]
  Ka for Fe(III) coordination: ~10^49 M^−1

## CC(C)(C)OC(=O)NCCOCCOCCOCCNC(=O)c1cc(O)c(O)c(C(=O)N[C@H]2COC(=O)[C@@H](NC(=O)c3cccc(O)c3O)COC(=O)[C@@H](NC(=O)c3cccc(O)c3O)COC2=O)c1 [conjugate 29, Tert-butyl(1-(3-(((3S,7S,11S)-7,11-bis(2,3-dihydroxybenzamido)-2,6,10-trioxo-1,5,9-trioxacyclododecan-3-yl)carbamoyl)-4,5-dihydroxyphenyl)-1-oxo-5,8,11-trioxa-2-azatridecan-13-yl)carbamate]
[6]
  growth restoration of E. coli (fepA-): No growth restoration
[7]
  growth restoration of E. coli (fes-): No growth restoration

## O=C(NCCOCCOCCOCCNC(=O)C1CCCCC1)c1cc(O)c(O)c(C(=O)N[C@H]2COC(=O)[C@@H](NC(=O)c3cccc(O)c3O)COC(=O)[C@@H](NC(=O)c3cccc(O)c3O)COC2=O)c1 [conjugate 30, N^3-((3S,7S,11S)-7,11-Bis(2,3-dihydroxybenzamido)-2,6,10-trioxo-1,5,9-trioxacyclododecan-3-yl)-N^1-(1-cyclohexyl-1-oxo-5,8,11-trioxa-2-azatridecan-13-yl)-4,5-dihydroxyisophthalamide]
[6]
  growth restoration of E. coli (fepA-): No growth restoration
[7]
  growth restoration of E. coli (fes-): No growth restoration
[4]
  growth enhancement of P. aeruginosa (pfeA-): no growth enhancement
  growth inhibition of P. aeruginosa (pfeA-): growth inhibition at micromolar concentrations

## O=C(N[C@H]1COC(=O)[C@@H](NC(=O)c2cccc([O-])c2[O-])COC(=O)[C@@H](NC(=O)c2cccc([O-])c2[O-])COC1=O)c1cccc([O-])c1[O-].[Fe+3] [ferric enterobactin]
[8]
  affinity of FepA for ferric enterobactin: sub-nanomolar affinity
[9]
  affinity of lcn2 for ferric enterobactin: low-nanomolar affinity

## Vancomycin-PEG-Ent [conjugate 42]
[2]; +DP
  effect on E. coli growth: inhibited the growth of E. coli
[3]; ±DP
  effect on growth of P. aeruginosa (pvd-, pch-): growth inhibitory effect
